Test system: TPM3-NTRK1-wt IC50 / primary target (e.g. CD74-ROS1-wt) IC50, Ba/F3 cells
Experiment: Cell assay TRKA selectivity (TRKA potency divided by primary target potency)
Assay type: cell-based
Settings: for TPM3-NTRK1-wt/CD74-ROS1-G2032R: TRKA selectivity ratio: TPM3-NTRK1-wt IC50 / CD74-ROS1-G2032R IC50, Ba/F3 cells; for TPM3-NTRK1-wt/CD74-ROS1-wt: TRKA selectivity ratio: TPM3-NTRK1-wt IC50 / CD74-ROS1-wt IC50, Ba/F3 cells; for TPM3-NTRK1-wt/EML4-ALK-L1196M-G1202R: TRKA selectivity ratio: TPM3-NTRK1-wt IC50 / EML4-ALK-L1196M-G1202R IC50, Ba/F3 cells; for TPM3-NTRK1-wt/EML4-ALK-wt: TRKA selectivity ratio: TPM3-NTRK1-wt IC50 / EML4-ALK-wt IC50, Ba/F3 cells
How it was run: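 IL-3-independent Ba/F3 lines stably expressing TPM3-TRKA or the primary fusion (e.g. CD74-ROS1 wt) were exposed to 3-fold compound dilutions for 72 h. Viability was read by CellTiter-Glo luminescence, with IC50 from four-parameter logistic fit. Selectivity is TPM3-NTRK1 IC50 divided by primary-target IC50, binned A (>30-fold) to D (<1).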

| SMILES | TPM3-NTRK1-wt/CD74-ROS1-G2032R | TPM3-NTRK1-wt/CD74-ROS1-wt | TPM3-NTRK1-wt/EML4-ALK-L1196M-G1202R | TPM3-NTRK1-wt/EML4-ALK-wt |
| --- | --- | --- | --- | --- |
| CCc1noc2c1-c1cnc(N)c(n1)O[C@H](C)c1cc(F)ccc1-c1nn(C)cc1C2 [Example 162, (19R)-3-ethyl-16-fluoro-10,19-dimethyl-5,20-dioxa-4,10,11,23,25-pentaazapentacyclo[19.3.1.0^2,^6.0^8,^12.0^13,^18]pentacosa-1(24),2(6),3,8,11,13,15,17,21(25),22-decaen-22-amine] | B (bin B for high selectivity, ratio>10-fold) | A (bin A for very high selectivity, ratio>30-fold) | C (bin C for moderate selectivity, ratio≥1) | A (bin A for very high selectivity, ratio>30-fold) |
| C[C@H]1Oc2cc(cnc2N)-c2c(C#N)nn(C)c2Cc2cc(C(F)(F)F)nn2-c2ccc(F)cc21 [Example 104, (19R)-22-amino-16-fluoro-5,19-dimethyl-10-(trifluoromethyl)-20-oxa-4,5,11,12,23-pentaazapentacyclo[19.3.1.0^2,^6.0^8,^12.0^13,^18]pentacosa-1(24),2(6),3,8,10,13,15,17,21(25),22-decaene-3-carbonitrile] | A (bin A for very high selectivity, ratio>30-fold) | A (bin A for very high selectivity, ratio>30-fold) | C (bin C for moderate selectivity, ratio≥1) | A (bin A for very high selectivity, ratio>30-fold) |
| Cn1nc(C#N)c2c1Cc1cc(Cl)nn1-c1ccc(F)cc1COc1cc-2cnc1N [Example 113, 22-amino-10-chloro-16-fluoro-5-methyl-20-oxa-4,5,11,12,23-pentaazapentacyclo[19.3.1.0^2,^6.0^8,^12.0^13,^18]pentacosa-1(24),2(6),3,8,10,13,15,17,21(25),22-decaene-3-carbonitrile] | A (bin A for very high selectivity, ratio>30-fold) | A (bin A for very high selectivity, ratio>30-fold) | C (bin C for moderate selectivity, ratio≥1) | A (bin A for very high selectivity, ratio>30-fold) |
| CCn1ncc2c1-c1cnc(N)c(c1)O[C@H](C)c1cc(F)ccc1-c1nc(C)oc1C2 [Example 131, (19R)-3-ethyl-16-fluoro-10,19-dimethyl-9,20-dioxa-3,4,11,23-tetraazapentacyclo[19.3.1.0^2,^6.0^8,^12.0^13,^18]pentacosa-1(24),2(6),4,8(12),10,13,15,17,21(25),22-decaen-22-amine] | B (bin B for high selectivity, ratio>10-fold) | A (bin A for very high selectivity, ratio>30-fold) | C (bin C for moderate selectivity, ratio≥1) | B (bin B for high selectivity, ratio>10-fold) |
| CCn1ncc2c1-c1cnc(N)c(c1)O[C@H](C)c1cc(F)ccc1-n1nc(C(F)F)cc1C2 [Example 102, (19R)-10-(difluoromethyl)-3-ethyl-16-fluoro-19-methyl-20-oxa-3,4,11,12,23-pentaazapentacyclo[19.3.1.0^2,^6.0^8,^12.0^13,^18]pentacosa-1(24),2(6),4,8,10,13,15,17,21(25),22-decaen-22-amine] | A (bin A for very high selectivity, ratio>30-fold) | A (bin A for very high selectivity, ratio>30-fold) | C (bin C for moderate selectivity, ratio≥1) | B (bin B for high selectivity, ratio>10-fold) |
| C[C@H]1Oc2cc(cnc2N)-c2c(C#N)cnn2Cc2cn(C)nc2-c2ccc(F)cc21 [Example 9, (19R)-22-amino-16-fluoro-10,19-dimethyl-20-oxa-5,6,10,11,23-pentaazapentacyclo[19.3.1.0^2,^6.0^8,^12.0^13,^18]pentacosa-1(24),2,4,8,11,13,15,17,21(25),22-decaene-3-carbonitrile] | B (bin B for high selectivity, ratio>10-fold) | A (bin A for very high selectivity, ratio>30-fold) | C (bin C for moderate selectivity, ratio≥1) | A (bin A for very high selectivity, ratio>30-fold) |
| Cc1nn(CC2CC2)c2c1Cc1cc(C(F)F)nn1-c1ccc(F)cc1[C@@H](C)Oc1cc-2cnc1N [Example 125, (19R)-3-(cyclopropylmethyl)-10-(difluoromethyl)-16-fluoro-5,19-dimethyl-20-oxa-3,4,11,12,23-pentaazapentacyclo[19.3.1.0^2,^6.0^8,^12.0^13,^18]pentacosa-1(24),2(6),4,8,10,13,15,17,21(25),22-decaen-22-amine] | A (bin A for very high selectivity, ratio>30-fold) | A (bin A for very high selectivity, ratio>30-fold) | A (bin A for very high selectivity, ratio>30-fold) | A (bin A for very high selectivity, ratio>30-fold) |
| CC1Oc2cc(cnc2N)-c2c(nn(C)c2C#N)Cc2cnccc2-c2ccc(F)cc21 (stereo not shown) [Example 59, 23-amino-17-fluoro-4,20-dimethyl-21-oxa-4,5,10,24-tetraazapentacyclo[20.3.1.0^2,^6.0^8,^13.0^14,^19]hexacosa-1(25),2,5,8(13),9,11,14,16,18,22(26),23-undecaene-3-carbonitrile] | C (bin C for moderate selectivity, ratio≥1) | A (bin A for very high selectivity, ratio>30-fold) | D (bin D for low selectivity, ratio<1) |  |
| C[C@H]1Oc2cc(cnc2N)-c2c(cnn2C2COC2)Cc2cn(C)nc2-c2ccc(F)cc21 [Example 139, (19R)-16-fluoro-10,19-dimethyl-3-(oxetan-3-yl)-20-oxa-3,4,10,11,23-pentaazapentacyclo[19.3.1.0^2,^6.0^8,^12.0^13,^18]pentacosa-1(24),2(6),4,8,11,13,15,17,21(25),22-decaen-22-amine] | A (bin A for very high selectivity, ratio>30-fold) | A (bin A for very high selectivity, ratio>30-fold) | C (bin C for moderate selectivity, ratio≥1) | A (bin A for very high selectivity, ratio>30-fold) |
| CCn1ncc2c1-c1cnc(N)c(c1)O[C@H](C)c1cc(F)ccc1-c1nn(C)c(OC)c1C2 [Example 157, (19R)-3-ethyl-16-fluoro-9-methoxy-10,19-dimethyl-20-oxa-3,4,10,11,23-pentaazapentacyclo[19.3.1.0^2,^6.0^8,^12.0^13,^18]pentacosa-1(24),2(6),4,8,11,13,15,17,21(25),22-decaen-22-amine] | A (bin A for very high selectivity, ratio>30-fold) | A (bin A for very high selectivity, ratio>30-fold) | C (bin C for moderate selectivity, ratio≥1) | A (bin A for very high selectivity, ratio>30-fold) |
| C[C@H]1Oc2cc(cnc2N)-c2c(C#N)nn(C)c2Cc2cccnc2-c2ccc(F)cc21 [Example 100, (20R)-23-amino-17-fluoro-5,20-dimethyl-21-oxa-4,5,12,24-tetraazapentacyclo[20.3.1.0^2,^6.0^8,^13.0^14,^19]hexacosa-1(25),2(6),3,8(13),9,11,14,16,18,22(26),23-undecaene-3-carbonitrile] | A (bin A for very high selectivity, ratio>30-fold) | A (bin A for very high selectivity, ratio>30-fold) | A (bin A for very high selectivity, ratio>30-fold) | A (bin A for very high selectivity, ratio>30-fold) |
| C[C@H]1Oc2cc(cnc2N)-c2c(cnn2C2CCC2)Cc2cnn(C)c2-c2ccc(F)cc21 [Example 5, (19R)-3-cyclobutyl-16-fluoro-11,19-dimethyl-20-oxa-3,4,10,11,23-pentaazapentacyclo[19.3.1.0^2,^6.0^8,^12.0^13,^18]pentacosa-1(24),2(6),4,8(12),9,13,15,17,21(25),22-decaen-22-amine] | A (bin A for very high selectivity, ratio>30-fold) | A (bin A for very high selectivity, ratio>30-fold) | A (bin A for very high selectivity, ratio>30-fold) | A (bin A for very high selectivity, ratio>30-fold) |
| CCn1ncc2c1-c1cnc(N)c(c1)O[C@H](C)c1cc(F)ccc1-n1nc(C#N)cc1C2 [Example 51, (19R)-22-amino-3-ethyl-16-fluoro-19-methyl-20-oxa-3,4,11,12,23-pentaazapentacyclo[19.3.1.0^2,^6.0^8,^12.0^13,^18]pentacosa-1(24),2(6),4,8,10,13,15,17,21(25),22-decaene-10-carbonitrile] | C (bin C for moderate selectivity, ratio≥1) | C (bin C for moderate selectivity, ratio≥1) | C (bin C for moderate selectivity, ratio≥1) | D (bin D for low selectivity, ratio<1) |
| C[C@H]1Oc2cc(cnc2N)-c2c(C#N)noc2Cc2cn(C)nc2-c2ccc(F)cc21 [Example 15, (19R)-22-amino-16-fluoro-10,19-dimethyl-5,20-dioxa-4,10,11,23-tetraazapentacyclo[19.3.1.0^2,^6.0^8,^12.0^13,^18]pentacosa-1(24),2(6),3,8,11,13(18),14,16,21(25),22-decaene-3-carbonitrile] | A (bin A for very high selectivity, ratio>30-fold) | A (bin A for very high selectivity, ratio>30-fold) | B (bin B for high selectivity, ratio>10-fold) | A (bin A for very high selectivity, ratio>30-fold) |

— patent US11667649B2, “Heteroaromatic macrocyclic ether chemotherapeutic agents” (Nuvalent, Inc., priority 2020, dated 2023)
